Experimental data as given in US10449184B2, “Pharmaceutical compositions of therapeutically active compounds” (Agios Pharmaceuticals, Inc., priority 2014, dated 2019).
Converted amounts (≈) assume the structure as drawn. “Also recorded” adds a separate entry of the source. Marks after values point to notes of the source that are not given here.

Tests used:
[1] = test system: IDH1 mutant R132H xenograft model; assay: 2HG reduction in IDH1 mutant R132H xenograft model; format: in vivo; details: single dose (50 mg/kg)
[2] = test system: primary human IDH-mutated blast cells; assay: intracellular 2HG in primary blast cells ex vivo; format: cell-based; details: 0.5 uM, 1 uM and 5 uM
[3] = Phase 1 clinical trial: safety, adverse events and patient disposition; format: in vivo, human
Text: The study includes a dose escalation phase to determine MTD followed by expansion cohorts to further evaluate the safety and tolerability of the MTD. The dose escalation phase will utilize a standard “3+3” design. […] Each dose cohort will plan to enroll a minimum of 3 subjects. The first 3 subjects enrolled in each dosing cohort during the dose escalation phase of the study will initially receive a single dose of study drug on Day −3 (i.e., 3 days prior to the start of daily dosing) and undergo PK/PD assessments over 72 hours to evaluate drug concentrations and 2HG levels. The next dose of study drug will be on Cycle 1 Day 1 (C1D1) at which time daily dosing will begin. The initial dosing regimen will be twice daily (approximately every 12 hours). If warranted based on the emerging data, an alternative dosing schedule (e.g., once daily or three times daily), including administration of the same total daily dose using different dosing schedules in concurrent cohorts, may be explored. If there are multiple subjects in the screening process at the time the third subject within a cohort begins treatment, up to 2 additional subjects may be enrolled with approval of the Medical Monitor. For these additional subjects, the Day −3 through Day 1 PK/PD assessments are optional following discussion with the Medical Monitor. The planned dose escalation scheme is illustrated in Table 1.
Toxicity severity will be graded according to the National Cancer Institute Common Terminology Criteria for Adverse Events (NCI CTCAE) version 4.03. A DLT is defined as follows. Hematologic includes prolonged myelosuppression, defined as persistence of ≥3 Grade neutropenia or thrombocytopenia (by NCI CTCAE, version 4.03, leukemia-specific criteria, i.e., marrow cellularity <5% on Day 28 or later from the start of study drug without evidence of leukemia) at least 42 days after the initiation of Cycle 1 therapy. Leukemia-specific grading should be used for cytopenias (based on percentage decrease from baseline: 50 to 75%=Grade 3, >75%=Grade 4). All AEs that cannot clearly be determined to be unrelated to Compound 1, or a pharmaceutically acceptable salt thereof will be considered relevant to determining DLTs.
AEs, including determination of DLTs, serious adverse events (SAEs), and AEs leading to discontinuation; safety laboratory parameters; physical examination findings; vital signs; 12-lead ECGs; LVEF; and ECOG PS will be monitored during the clinical study. The severity of AEs will be assessed by the NCI CTCAE, Version 4.03.
Adverse events will be summarized by Medical Dictionary for Regulatory Activities (MedDRA) system organ class and preferred term. Separate tabulations will be produced for all treatment-emergent AEs (TEAEs), treatment-related AEs (those considered by the Investigator as at least possibly drug related), SAEs, discontinuations due to AEs, and AEs of at least Grade 3 severity. By-subject listings will be provided for deaths, SAEs, DLTs, and AEs leading to discontinuation of treatment.

[4] = Phase 1 clinical trial: pharmacokinetics after oral administration; format: in vivo, human; details: patients
Method: A full 72-hour PK/PD profile will be conducted: subjects will be required to remain at the study site for 10 hours on Day −3 and return on Days −2, −1, and 1 for 24, 48, and 72 hour samples, respectively.
All subjects will undergo PK/PD assessments over a 10-hour period on both C1D15 and C2D1. Additional pre-dose urine and/or blood sampling will be conducted on C1D8, C1D22, C2D15, C3D1, C3D15, and on Day 1 of all subsequent cycles. Available bone marrow biopsy samples also will be assessed for 2HG levels.
The blood samples will also be used for the determination of 2HG concentrations and for evaluation of cholesterol and 4β-OH-cholesterol levels.
The PK/PD profile from Day −3 through Day 1 is optional for additional subjects enrolled in the dose escalation phase (i.e., for any subjects beyond the 3 initial subjects enrolled in a cohort) and is not required for subjects enrolled in the expansion cohorts.
All subjects will undergo 10-hour PK/PD sampling on C1D15 and C2D1 (i.e., on Days 15 and 29 of twice daily dosing). […] Blood samples also will be drawn on Days 8 and 22 of Cycle 1, Day 15 of Cycle 2, Days 1 and 15 of Cycle 3, and Day 1 of each cycle thereafter; all samples will be obtained prior to dosing. Additionally, one blood sample will be drawn at the End of Treatment Visit.

[5] = test system: 2HG; assay: Phase 1 clinical trial: plasma 2HG inhibition; format: in vivo, human; details: all dose levels
Method: Samples collected for PK assessments also will be used to assess 2HG levels. In addition, subjects will have blood drawn for determination of 2HG levels at the screening assessment.
The 2HG baseline was taken at Day −3 pre-treatment 2HG inhibition estimated based on 2HG pre-treatment level and AUC0-10 hr post treatment. For the 100 mg BID and 300 mg QD Cohorts, 3 to 4 patients were measured per time point and for the 500 mg QD Cohort, 1 to 3 patients were measured per time point.

[6] = test system: advanced hematologic malignancies that harbor an IDH1 mutation (R/R AML); assay: Phase 1 clinical trial: clinical activity assessed by Investigator using IWG AML and MDS criteria; format: in vivo, human
Text: Subjects will undergo radiographic evaluations (CT/MRI), and assessment of bone marrow aspirates and biopsies and peripheral blood to assess the extent of disease, at screening, on Day 15, Day 29 and Day 57, and every 56 days thereafter while on study drug treatment, independent of dose delays and/or dose interruptions, and/or at any time when progression of disease is suspected. Two core tumor biopsies will be obtained at screening, at the time of the first assessment of response, and at the time of disease progression within a window of ±3 days around the planned assessment time point. For patients with acute myelogenous leukemia (AML), response to treatment will be determined by the Investigators based on modified International Working Group (IWG) response criteria.
Disease response to treatment will be assessed through the evaluation of bone marrow biopsies and/or aspirates, along with complete blood counts and examination of peripheral blood films. Subjects will have the extent of their disease assessed and recorded at screening, on Days 15, 29, and 57, every 56 days thereafter while on study drug treatment, independent of dose-delays and/or dose interruptions, and/or at any time when progression of disease is suspected. An assessment also will be conducted at the End of Treatment visit for subjects who discontinue the study due to reasons other than disease progression.
Response to treatment as assessed by the site Investigators using modified IWG (for subjects with hematologic malignancies, such as MDS, MDS/MPN or AML). Two-sided 90% confidence intervals on the response rates will be calculated for each dose level and overall. Data will also be summarized by type of malignancy for subjects in the cohort expansion phase. Descriptive statistics will be used to summarize Ki67 levels from tumor biopsies.

[7] = solubility in fasted state simulated intestinal fluid (FASSIF); format: physicochemical; details: pH 6.1, fassif, pH of 6.1 at 4 hours
[8] = rat pharmacokinetics study of Example 4 (oral suspensions); format: in vivo, Sprague Dawley rats; details: Sprague Dawley, 200 mg/kg oral suspension in vehicle, plasma
Method: The following three homogenous suspensions of Compound 1 are provided:
Form 2 in vehicle (1% d-alpha-tocopheryl polyethylene glycol 1000 succinate (TPGS):1% HPMCAS in water), an amorphous solid dispersion of 25% w/w Form 2 and 75% w/w HPMCAS-M (Solid Dispersion A) in vehicle, and an amorphous solid dispersion of 25% w/w Form 2 and 75% w/w PVAP (Solid Dispersion B) in vehicle (200 mg/kg in 10 mL/kg).
Each suspension is prepared on the day of dosing, and the Sprague Dawley rats are dosed orally. Serial plasma samples are taken at different time points following dosing. […] PK parameters, including AUC0-72 hr and Cmax, are calculated using WinNonlin software.

In the case of `N#Cc1ccnc(N2C(=O)CC[C@H]2C(=O)N(c2cncc(F)c2)[C@H](C(=O)NC2CC(F)(F)C2)c2ccccc2Cl)c1` [Compound 1, (S)—N—((S)-1-(2-chlorophenyl)-2-((3,3-difluorocyclobutyl)amino)-2-oxoethyl)-1-(4-cyanopyridin-2-yl)-N-(5-fluoropyridin-3-yl)-5-oxopyrrolidine-2-carboxamide], the 2HG in xenograft [1] is reported as “Reduction in 2HG was observed”, the “intracellular 2HG” value [2] is reported as “reduced intracellular 2HG” and the “subjects discontinued study due to an intracranial bleed (SAE, resulted in death)” value ([3]; 100 mg BID) is reported as 1. The QT prolongation observed ([3]; 100 mg cohort, patient with history of R BBB) was “patient population. Other QT prolongations observed: Grade 1 prolonged”, the “subjects who experienced differentiation syndrome (SAE)” value ([3]; 300 mg QD) was 1 and the “DLT (dose limiting toxicity) observed” value ([3]; 800 mg QD) was “One DLT (dose limiting toxicity) of grade 3 QT prolongation”. The “subjects who experienced tongue edema and QT prolongation (SAE)” value ([3]; 800 mg QD) was 1, the QT prolongation observed ([3]; 800 mg cohort) was 300 mg cohort; and Grade 3 prolonged QT (DLT) in 800 mg cohort and the “At least 1 adverse event” value ([3]; All grades) was 14 (82) n (%). The Cough ([3]; All grades) was 4 (24) n (%), the Diarrhea ([3]; All grades) was 3 (18) n (%) and the Dyspnea ([3]; All grades) was 5 (29) n (%). The “Electrocardiogram QT prolonged” value ([3]; All grades) was 3 (18) n (%), the Fatigue ([3]; All grades) was 5 (29) n (%) and the Febrile neutropenia ([3]; All grades) was 3 (18) n (%). For the same molecule, the Nausea ([3]; All grades) was 5 (29) n (%), the Pyrexia ([3]; All grades) was 4 (24) n (%) and the Vomiting ([3]; All grades) was 4 (24) n (%). The “Death ≤28 days after Compound 1 Discontinuation” value (“Death ≤28 days” for short) ([3]; All patients (N = 17)) was 6, the “Discontinued due to AE (intracranial hemorrhage)” value ([3]; All patients (N = 17)) was 1** n and the “Discontinued due to PD (progressive disease)” value (shortened to “Discontinued due to PD”) ([3]; All patients (N = 17)) was 4 n. The “Death ≤28 days” value ([3]; Cohort 1 100 mg BID (n = 4)) was 3, the “Discontinued due to AE (intracranial hemorrhage)” value ([3]; Cohort 1 100 mg BID (n = 4)) was 1** n and the “Discontinued due to PD” value ([3]; Cohort 1 100 mg BID (n = 4)) was 2 n. The “Death ≤28 days” value ([3]; Cohort 2 300 mg QD (n = 4)) was 2, the “Discontinued due to PD” value ([3]; Cohort 2 300 mg QD (n = 4)) was 1 n and the “Death ≤28 days” value ([3]; Cohort 3 500 mg QD (n = 4)) was 1. The “Discontinued due to PD” value ([3]; Cohort 3 500 mg QD (n = 4)) was 1 n, the “At least 1 adverse event” value ([3]; Grade ≥3) was 11 (65) n (%) and the Cough ([3]; Grade ≥3) was 0 n (%). For the same molecule, the Diarrhea ([3]; Grade ≥3) was 0 n (%), the Dyspnea ([3]; Grade ≥3) was 2 (12) n (%) and the “Electrocardiogram QT prolonged” value ([3]; Grade ≥3) was 1 (6) n (%). The Fatigue ([3]; Grade ≥3) was 1 (6) n (%), the Febrile neutropenia ([3]; Grade ≥3) was 3 (18) n (%) and the Nausea ([3]; Grade ≥3) was 1 (6) n (%). For the same molecule, the Pyrexia ([3]; Grade ≥3) was 1 (6) n (%), the Vomiting ([3]; Grade ≥3) was 0 n (%) and the hypotension ([3]; Grade ≥3) was “Notable grade ≥3 AEs include: hypotension 2 (12%), mental status n (%)”. The mental status changes ([3]; Grade ≥3) was “changes 2 (12%), neutropenia 2 (12%). AEs appear typical for this n (%)”, the neutropenia ([3]; Grade ≥3) was “changes 2 (12%), neutropenia 2 (12%). AEs appear typical for this n (%)” and the “subjects who experienced serious adverse events” value ([3]; all cohorts) was “Eight”. The half-life ([4]; human, plasma) was 182 h, the drug accumulation [4] was “drug accumulation” and the plasma exposure [4] was “high plasma exposure”. The “plasma levels of 2HG” value ([5]; 100 mg BID, 300 mg QD or 500 mg QD) was “reduced to a normal range; also recorded: reduced to normal ranges”, the “plasma 2HG inhibition” value ([5]; vs Day -3 pre-treatment level, AUC0-10 hr post treatment) was “up to 98%” and the “CR (complete response)” value ([6]; Cohort 1 100 mg BID (n = 4)) was 1. The “Overall response rate (ORR = CR, Marrow CR and PR)” value (“Overall response rate” for short) ([6]; Cohort 1 100 mg BID (n = 4)) was 1/4, the “CR (complete response)” value ([6]; Cohort 2 300 mg QD (n = 4)) was 1 and the “Overall response rate” value ([6]; Cohort 2 300 mg QD (n = 4)) was 1/4. For the same molecule, the “PD (progressive disease)” value ([6]; Cohort 2 300 mg QD (n = 4)) was 1, the “CR (complete response)” value ([6]; Cohort 3 500 mg QD (n = 4)) was 1 and the “Marrow CR (≤5% blasts in BM; no hematological recovery)” value ([6]; Cohort 3 500 mg QD (n = 4)) was 2. For the same molecule, the “Overall response rate” value ([6]; Cohort 3 500 mg QD (n = 4)) was 3/4, the “CR (complete response)” value ([6]; Cohort 4 800 mg QD (n = 2)) was 1 and the “Overall response rate” value ([6]; Cohort 4 800 mg QD (n = 2)) was 2/2. For the same molecule, the “PR (partial response)” value ([6]; Cohort 4 800 mg QD (n = 2)) was 1, the “CR (complete response)” value ([6]; Total N = 14) was 4 and the “Marrow CR (≤5% blasts in BM; no hematological recovery)” value ([6]; Total N = 14) was 2. The “Overall response rate” value ([6]; Total N = 14) was 7/14, the “PD (progressive disease)” value ([6]; Total N = 14) was 1 and the “PR (partial response)” value ([6]; Total N = 14) was 1. The “blasts in bone marrow” value ([6]; patient refractory to 7+3, after 2 weeks of therapy) was less than 5% and the “response of single patient” value ([6]; patient, after 2 weeks of therapy, maintained at D28) was “met the criteria for a full CR”.

For `N#Cc1ccnc(N2C(=O)CC[C@H]2C(=O)N(c2cncc(F)c2)[C@H](C(=O)NC2CC(F)(F)C2)c2ccccc2Cl)c1` [Form 2, (S)—N—((S)-1-(2-chlorophenyl)-2-((3,3-difluorocyclobutyl)amino)-2-oxoethyl)-1-(4-cyanopyridin-2-yl)-N-(5-fluoropyridin-3-yl)-5-oxopyrrolidine-2-carboxamide], the solubility at 4 h [7] was roughly 18 µg/mL (≈ 30.9 µM), the Cmax [8] was 1600 ng/mL and the AUC(0-t) ([8]; read-out: AUC0-72 hr) was 21700 ng·h/mL.
